Results taken from patent EP1094066A2, “Condensed heterocyclic glutamic acid derivatives as antiproliferative agents” (AGOURON PHARMACEUTICALS, INC., priority 1993, dated 1994).

System: L1210 murine leukemia (ATCC CCL 219) cell line
Assay: Cellular growth inhibition, MTT-tetrazolium reduction assay
Assay type: cell-based
Details: Mus musculus, 72 h; L1210 cells, 3 days of continuous exposure
Method: Cellular growth in the presence of the compounds according to the present invention was assessed using the L1210 murine leukemia (ATCC CCL 219) cell line. The cell line was maintained in RPMI 1640 medium containing 5% heat-inactivated fetal bovine serum without antibiotics.
Water insoluble derivatives were dissolved in DMSO and diluted to a final concentration of 0.5% solvent in cell cultures.

With `Nc1nc2c(c(=O)[nH]1)SC(CCc1ccc(C(=O)N[C@@H](CCC(=O)O)C(=O)O)cc1)CN2` (stereo partly shown) [(14), 2-[4-[2-(2-Amino-4-oxo-4,6,7,8-tetrahydro-3H-pyrimido[5,4-b][1,4]thiazin-6-yl)-ethyl]benzoylamino)pentanedioic acid] the IC50 was 50 nM.
